Experimental findings from US20210255193A1, “LYSINE REACTIVE PROBES AND USES THEREOF” (The Scripps Research Institute, priority 2017, published 2021) are described below.

Common to all, as to assay: competitive isoTOP-ABPP
Holding throughout (format): binding

For assay [1], the target named is T1, FECH Ferrochelatase, mitochondrial (Homo sapiens, UniProt P22830).
T1 construct: isoTOP-ABPP experiments performed in cell lysates (in vitro); endogenous in cells; host or cells: soluble proteome of human cancer cell lines (MDA-MB-231; Ramos and Jurkat also prepared)
T1 sequence (P22830 55-423): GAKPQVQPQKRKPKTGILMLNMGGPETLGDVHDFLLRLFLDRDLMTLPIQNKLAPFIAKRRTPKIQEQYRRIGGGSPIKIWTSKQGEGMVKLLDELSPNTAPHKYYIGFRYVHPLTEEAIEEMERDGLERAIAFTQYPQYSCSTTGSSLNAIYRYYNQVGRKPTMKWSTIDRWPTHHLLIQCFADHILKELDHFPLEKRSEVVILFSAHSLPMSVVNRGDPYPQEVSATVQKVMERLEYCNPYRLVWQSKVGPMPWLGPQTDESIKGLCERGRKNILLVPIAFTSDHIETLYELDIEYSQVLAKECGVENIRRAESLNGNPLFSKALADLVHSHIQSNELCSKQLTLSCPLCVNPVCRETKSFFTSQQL
To be noted: for isoTOP-ABPP ratio (R) at liganded lysine P22830_K304: sol, 231. Summed up: (§1)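 Fragments at 50 μM (activated esters) or 100 μM (guanidinylating agents) were incubated with 0.5 ml lysate before probe labeling. After 0.1 mM STP-alkyne for 1 h, samples were clicked to isotopically distinct TEV tags, and R taken as DMSO-over-compound MS1 peak-area ratio.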

The target in assay [2] is T2, KPNA2 Importin subunit alpha-2 (Homo sapiens, UniProt P52292).
T2 construct: isoTOP-ABPP experiments performed in cell lysates (in vitro); endogenous in cells; host or cells: soluble proteome of human cancer cell lines (MDA-MB-231, Ramos, Jurkat)
Conditions: for isoTOP-ABPP ratio (R) at liganded lysine P52292_K459: sol, 231. Summed up: as §1

Assay [3] has as its target T3, RINT1 RAD50-interacting protein 1 (Homo sapiens, UniProt Q6NUQ1).
T3 construct: isoTOP-ABPP experiments performed in cell lysates (in vitro); endogenous in cells; host or cells: soluble proteome of human cancer cell lines (MDA-MB-231; Ramos and Jurkat also prepared)
Conditions: for isoTOP-ABPP ratio (R) at liganded lysine Q6NUQ1_K771: sol, 231. Summed up:
as §1

Assay [4] addresses T4, TRAP1 Heat shock protein 75 kDa, mitochondrial (Homo sapiens, UniProt Q12931).
T4 construct: isoTOP-ABPP experiments performed in cell lysates (in vitro); endogenous in cells; host or cells: soluble proteome of human cancer cell lines (MDA-MB-231, Ramos, Jurkat)
T4 sequence (Q12931 60-704): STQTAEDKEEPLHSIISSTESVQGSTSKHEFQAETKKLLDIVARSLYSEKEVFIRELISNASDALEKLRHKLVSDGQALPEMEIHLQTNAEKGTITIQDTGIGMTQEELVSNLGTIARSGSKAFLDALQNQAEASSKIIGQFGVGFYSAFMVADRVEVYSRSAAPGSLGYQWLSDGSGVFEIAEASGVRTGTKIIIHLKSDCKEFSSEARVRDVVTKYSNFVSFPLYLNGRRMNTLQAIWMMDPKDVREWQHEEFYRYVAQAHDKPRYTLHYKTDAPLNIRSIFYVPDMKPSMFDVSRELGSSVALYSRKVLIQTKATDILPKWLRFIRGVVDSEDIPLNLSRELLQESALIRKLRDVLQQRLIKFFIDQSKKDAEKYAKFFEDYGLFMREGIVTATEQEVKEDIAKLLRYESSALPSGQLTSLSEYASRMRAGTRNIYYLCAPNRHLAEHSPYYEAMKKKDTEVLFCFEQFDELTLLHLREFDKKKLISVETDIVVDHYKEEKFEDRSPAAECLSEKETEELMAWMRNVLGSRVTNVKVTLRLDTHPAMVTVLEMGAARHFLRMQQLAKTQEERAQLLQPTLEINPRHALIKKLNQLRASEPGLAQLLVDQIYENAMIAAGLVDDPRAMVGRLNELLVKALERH
To be noted: for isoTOP-ABPP ratio (R) at liganded lysine Q12931_K699: sol, 231. Summed up:
as §1

T3 sequence (Q6NUQ1 whole entry): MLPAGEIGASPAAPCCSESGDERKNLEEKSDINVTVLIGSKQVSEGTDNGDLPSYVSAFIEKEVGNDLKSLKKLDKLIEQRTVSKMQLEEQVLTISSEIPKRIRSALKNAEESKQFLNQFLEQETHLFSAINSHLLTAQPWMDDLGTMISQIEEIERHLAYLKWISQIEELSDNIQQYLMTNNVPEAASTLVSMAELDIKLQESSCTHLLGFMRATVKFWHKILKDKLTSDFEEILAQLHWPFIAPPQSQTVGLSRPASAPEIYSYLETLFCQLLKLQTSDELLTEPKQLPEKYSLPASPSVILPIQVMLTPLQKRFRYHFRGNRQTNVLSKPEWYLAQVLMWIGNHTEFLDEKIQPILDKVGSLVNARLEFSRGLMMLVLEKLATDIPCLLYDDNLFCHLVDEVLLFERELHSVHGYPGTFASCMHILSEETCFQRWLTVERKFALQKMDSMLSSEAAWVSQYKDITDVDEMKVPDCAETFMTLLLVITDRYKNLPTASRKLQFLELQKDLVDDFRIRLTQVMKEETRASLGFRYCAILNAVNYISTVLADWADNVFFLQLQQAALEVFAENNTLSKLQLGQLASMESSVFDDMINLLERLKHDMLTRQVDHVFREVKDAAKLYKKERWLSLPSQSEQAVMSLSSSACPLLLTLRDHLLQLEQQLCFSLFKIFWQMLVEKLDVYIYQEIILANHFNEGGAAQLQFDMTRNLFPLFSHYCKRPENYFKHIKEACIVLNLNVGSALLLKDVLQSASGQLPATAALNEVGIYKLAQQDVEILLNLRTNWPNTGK

For the compound `COc1cc(CCC(=O)Oc2ccc([N+](=O)[O-])cc2[N+](=O)[O-])cc(OC)c1OC` [fragment 33, 2,4-Dinitrophenyl 3-(3,4,5-trimethoxyphenyl)propanoate], the “isoTOP-ABPP reactivity ratio at lysine P22830_K304” value in assay [1] (50 uM, 231 sol, in vitro) amounted to 1.7. Moreover, the “isoTOP-ABPP reactivity ratio at lysine P52292_K459” value in assay [2] (50 uM, 231 sol, in vitro) is reported as 1.8. Moreover, the “isoTOP-ABPP reactivity ratio at lysine Q6NUQ1_K771” value in assay [3] (50 uM, 231 sol, in vitro) was 1.0. In addition, the “isoTOP-ABPP reactivity ratio at lysine Q12931_K699” value in assay [4] (50 uM, 231 sol, in vitro) came to 1.5.

Turning to `O=C(CCc1coc2cc(F)ccc2c1=O)Oc1ccc([N+](=O)[O-])cc1[N+](=O)[O-]` [fragment 36, 2,4-Dinitrophenyl 3-(7-fluoro-4-oxo-4H-chromen-3-yl)propanoate], the “isoTOP-ABPP ratio (R) at liganded lysine P22830_K304” value in assay [1] (50 uM, in vitro) came out at 2.0. Further, the “isoTOP-ABPP ratio (R) at liganded lysine P52292_K459” value in assay [2] (50 uM, in vitro) is recorded as 9.2. The “isoTOP-ABPP ratio (R) at liganded lysine Q6NUQ1_K771” value in assay [3] (50 uM, in vitro) is reported as 0.9. In addition, in assay [4] (50 uM, in vitro), the “isoTOP-ABPP ratio (R) at liganded lysine Q12931_K699” value amounted to 1.7.

Turning to `O=C(CC12CC3CC(CC(C3)C1)C2)Oc1ccc([N+](=O)[O-])cc1[N+](=O)[O-]` [fragment 38, 2,4-Dinitrophenyl 2-(adamantan-1-yl)acetate], the “isoTOP-ABPP ratio (R) at liganded lysine P22830_K304” value in assay [1] (50 uM, in vitro) was 1.8. The “isoTOP-ABPP ratio (R) at liganded lysine P52292_K459” value in assay [2] (50 uM, in vitro) is 20.0. In addition, the “isoTOP-ABPP ratio (R) at liganded lysine Q6NUQ1_K771” value in assay [3] (50 uM, in vitro) came out at 1.2. Further, the “isoTOP-ABPP ratio (R) at liganded lysine Q12931_K699” value in assay [4] (50 uM, in vitro) stood at 1.4.

For `O=C(Oc1ccc([N+](=O)[O-])cc1[N+](=O)[O-])c1ccc(Oc2ccccc2)cc1` [fragment 39, 2,4-Dinitrophenyl 4-phenoxybenzoate], in assay [1] (50 uM, in vitro), the “isoTOP-ABPP ratio (R) at liganded lysine P22830_K304” value is 1.3. The “isoTOP-ABPP ratio (R) at liganded lysine P52292_K459” value in assay [2] (50 uM, in vitro) turned out to be 1.0. Moreover, the “isoTOP-ABPP ratio (R) at liganded lysine Q6NUQ1_K771” value in assay [3] (50 uM, in vitro) worked out at 1.5. The “isoTOP-ABPP ratio (R) at liganded lysine Q12931_K699” value in assay [4] (50 uM, in vitro) is recorded as 0.9.

For the compound `O=C(Oc1ccc([N+](=O)[O-])cc1[N+](=O)[O-])C(c1ccccc1)(c1ccccc1)c1ccccc1` [fragment 42, 2,4-Dinitrophenyl 2,2,2-triphenylacetate], the “isoTOP-ABPP ratio (R) at liganded lysine P22830_K304” value in assay [1] (50 uM, in vitro) came out at 1.0. In addition, the “isoTOP-ABPP ratio (R) at liganded lysine P52292_K459” value in assay [2] (50 uM, in vitro) was 0.9. Further, the “isoTOP-ABPP ratio (R) at liganded lysine Q6NUQ1_K771” value in assay [3] (50 uM, in vitro) is given as 1.1. Further, the “isoTOP-ABPP ratio (R) at liganded lysine Q12931_K699” value in assay [4] (50 uM, in vitro) worked out at 1.0.

With `CC(=O)Oc1ccc([N+](=O)[O-])cc1[N+](=O)[O-]` [fragment 43, 2,4-Dinitrophenyl acetate], the “isoTOP-ABPP ratio (R) at liganded lysine P22830_K304” value in assay [1] (50 uM, in vitro) worked out at 1.3. Also, the “isoTOP-ABPP ratio (R) at liganded lysine P52292_K459” value in assay [2] (50 uM, in vitro) was 2.6. For the same compound, the “isoTOP-ABPP ratio (R) at liganded lysine Q6NUQ1_K771” value in assay [3] (50 uM, in vitro) amounted to 1.0. Besides, in assay [4] (50 uM, in vitro), the “isoTOP-ABPP ratio (R) at liganded lysine Q12931_K699” value is given as 1.0.

In the case of `N#Cc1ccc(C(=O)Oc2ccc([N+](=O)[O-])cc2[N+](=O)[O-])cc1` [fragment 44, 2,4-Dinitrophenyl 4-cyanobenzoate], the “isoTOP-ABPP ratio, lysine P22830_K304” value in assay [1] (50 uM_231_sol_in vitro) was 1.1. The “isoTOP-ABPP ratio, lysine P52292_K459” value in assay [2] (50 uM_231_sol_in vitro) is 1.6. Also, the “isoTOP-ABPP ratio, lysine Q6NUQ1_K771” value in assay [3] (50 uM_231_sol_in vitro) is 1.7. Besides, the “isoTOP-ABPP ratio, lysine Q12931_K699” value in assay [4] (50 uM_231_sol_in vitro) is 0.9.

As to `O=C(CCc1ccc2c(c1)OCO2)Oc1ccc([N+](=O)[O-])cc1[N+](=O)[O-]` [fragment 45, 2,4-Dinitrophenyl 3-(benzo[d][1,3]dioxol-5-yl)propanoate], the “isoTOP-ABPP ratio, lysine P22830_K304” value in assay [1] (50 uM_231_sol_in vitro) worked out at 1.4. In addition, the “isoTOP-ABPP ratio, lysine P52292_K459” value in assay [2] (50 uM_231_sol_in vitro) was 1.7. Also, the “isoTOP-ABPP ratio, lysine Q6NUQ1_K771” value in assay [3] (50 uM_231_sol_in vitro) came to 1.0. The “isoTOP-ABPP ratio, lysine Q12931_K699” value in assay [4] (50 uM_231_sol_in vitro) came out at 1.4.

Turning to `O=C(ON1C(=O)CCC1=O)c1cc(C(F)(F)F)cc(C(F)(F)F)c1` [fragment 46, 3,5-Bis(trifluoromethyl)benzoic acid NHS ester], in assay [1] (50 uM_231_sol_in vitro), the “isoTOP-ABPP ratio, lysine P22830_K304” value was 0.9. For the same compound, the “isoTOP-ABPP ratio, lysine P52292_K459” value in assay [2] (50 uM_231_sol_in vitro) is 1.4. The “isoTOP-ABPP ratio, lysine Q6NUQ1_K771” value in assay [3] (50 uM_231_sol_in vitro) was 20.0. For the same compound, the “isoTOP-ABPP ratio, lysine Q12931_K699” value in assay [4] (50 uM_231_sol_in vitro) was determined as 0.9.

As for `O=C(Oc1c(F)c(F)c(C(F)(F)F)c(F)c1F)c1cc(C(F)(F)F)cc(C(F)(F)F)c1` [fragment 47, 2,3,5,6-Tetrafluoro-4-(trifluoromethyl)phenyl 3,5-bis(trifluoromethyl)benzoate], the “isoTOP-ABPP ratio, lysine P22830_K304” value in assay [1] (50 uM_231_sol_in vitro) is on record as 2.2. Further, in assay [2] (50 uM_231_sol_in vitro), the “isoTOP-ABPP ratio, lysine P52292_K459” value worked out at 1.2. In addition, in assay [3] (50 uM_231_sol_in vitro), the “isoTOP-ABPP ratio, lysine Q6NUQ1_K771” value worked out at 1.2. In addition, the “isoTOP-ABPP ratio, lysine Q12931_K699” value in assay [4] (50 uM_231_sol_in vitro) is 1.1.

For the compound `O=C(Oc1c(F)c(F)cc(F)c1F)c1cc(C(F)(F)F)cc(C(F)(F)F)c1` [fragment 48, 2,3,5,6-Tetrafluorophenyl 3,5-bis(trifluoromethyl)benzoate], the “isoTOP-ABPP ratio, lysine P22830_K304” value in assay [1] (50 uM_231_sol_in vitro) is 1.1. Moreover, the “isoTOP-ABPP ratio, lysine P52292_K459” value in assay [2] (50 uM_231_sol_in vitro) came out at 1.1. In assay [3] (50 uM_231_sol_in vitro), the “isoTOP-ABPP ratio, lysine Q6NUQ1_K771” value was 4.8. Further, the “isoTOP-ABPP ratio, lysine Q12931_K699” value in assay [4] (50 uM_231_sol_in vitro) was found to be 1.0.

As for `COC(=O)NC(=NC(=O)OCC1c2ccccc2-c2ccccc21)n1cccn1` [fragment 49, N-Methoxycarbonyl-N′-9-fluorenylmethoxycarbonyl-pyrazole-1-carboxamidine], in assay [1] (100 uM_231_sol_in vitro), the “isoTOP-ABPP ratio, lysine P22830_K304” value is 5.3. Also, the “isoTOP-ABPP ratio, lysine P52292_K459” value in assay [2] (100 uM_231_sol_in vitro) was 1.1. The “isoTOP-ABPP ratio, lysine Q6NUQ1_K771” value in assay [3] (100 uM_231_sol_in vitro) stood at 1.1. The “isoTOP-ABPP ratio, lysine Q12931_K699” value in assay [4] (100 uM_231_sol_in vitro) is recorded as 1.2.

As for `CC(C)(C)OC(=O)N=C(NC(=O)OC(C)(C)C)n1cccn1` [fragment 50, reference compound], the “isoTOP-ABPP ratio, lysine P22830_K304” value in assay [1] (100 uM_231_sol_in vitro) is listed as 2.3. For the same compound, the “isoTOP-ABPP ratio, lysine P52292_K459” value in assay [2] (100 uM_231_sol_in vitro) was 1.6. The “isoTOP-ABPP ratio, lysine Q6NUQ1_K771” value in assay [3] (100 uM_231_sol_in vitro) came out at 1.1. Further, the “isoTOP-ABPP ratio, lysine Q12931_K699” value in assay [4] (100 uM_231_sol_in vitro) is recorded as 1.1.

In the case of `NC(=O)c1cc(C(F)(F)F)cc(C(F)(F)F)c1` [fragment 51, reference compound], the “isoTOP-ABPP ratio, lysine P22830_K304” value in assay [1] (50 uM_231_sol_in vitro) is reported as 0.8. Besides, the “isoTOP-ABPP ratio, lysine P52292_K459” value in assay [2] (50 uM_231_sol_in vitro) amounted to 0.9. The “isoTOP-ABPP ratio, lysine Q6NUQ1_K771” value in assay [3] (50 uM_231_sol_in vitro) was found to be 0.9. The “isoTOP-ABPP ratio, lysine Q12931_K699” value in assay [4] (50 uM_231_sol_in vitro) is given as 1.2.
